Results published in PubChem BioAssay (NCI).
Several values for one entry are separate records, joined by “and”; a condition that tells them apart may be missing. Equal entries are not always repeated.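 1) Cells in 96-well plates. 2) Compound, 48 h, 5 concentrations. 3) Linear interpolation between surrounding doses. 4) Unreached endpoint = highest concentration. GI50 = concentration required for 50% inhibition of growth. At the TGI there is no net growth.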

Legend:
Assay in all cases: growth of human tumour cells (NCI), 48 h
MALME-3M melanoma = tested on: MALME-3M melanoma
RXF 393 renal = tested on: RXF 393 renal
NCI-H226 lung = tested on: NCI-H226 lung
CAKI-1 renal = tested on: CAKI-1 renal
HCT-15 colon = tested on: HCT-15 colon
SK-MEL-28 melanoma = tested on: SK-MEL-28 melanoma
SK-MEL-2 melanoma = tested on: SK-MEL-2 melanoma
NCI-H460 lung = tested on: NCI-H460 lung
IGROV1 ovarian = tested on: IGROV1 ovarian
HOP-92 NSCLC = tested on: HOP-92 NSCLC

SMILES | TGI (MALME-3M melanoma) | TGI (RXF 393 renal) | TGI (NCI-H226 lung) | TGI (CAKI-1 renal) | TGI (HCT-15 colon) | TGI (SK-MEL-28 melanoma) | TGI (SK-MEL-2 melanoma) | TGI (NCI-H460 lung) | TGI (IGROV1 ovarian) [µM] | GI50 (HOP-92 NSCLC) [µM] | TGI (HOP-92 NSCLC) | GI50 (IGROV1 ovarian) [µM] | GI50 (MALME-3M melanoma) [µM] | GI50 (RXF 393 renal) [µM] | GI50 (NCI-H226 lung) [µM] | GI50 (CAKI-1 renal) [µM] | GI50 (HCT-15 colon) [µM] | GI50 (SK-MEL-28 melanoma) [µM] | GI50 (SK-MEL-2 melanoma) [µM] | GI50 (NCI-H460 lung) [µM]
CN(C)CC1CCC(CN(C)C)C1=O (stereo unspecified) | 3.67 µM | 9.68 µM | 38.8 µM | 1.95 µM | 4.82 µM | 36.5 µM | 21.6 µM | 45.6 µM | 15.4 | 1.93 | 4.07 µM | – | – | – | – | – | – | – | – | –
COc1ccc(N(C(=O)Nc2ccc(Cl)c(Cl)c2)C2c3cccn3C(=O)N2c2ccc(Cl)c(Cl)c2)cc1 (stereo unspecified) | > 100 µM | > 100 µM | > 100 µM | > 100 µM | > 100 µM | > 100 µM | > 100 µM | > 100 µM | > 100 | – | > 100 µM | – | – | – | – | – | – | – | – | –
O=C1NCN(c2ccccc2)C12CCN(CCCN1CCN(CCOC(c3ccc(F)cc3)c3ccc(F)cc3)CC1)CC2 | 2.68 µM | 2.25 µM | 3.84 µM | 5.07 µM | 5.3 µM | 6.3 µM | 3.71 µM | 4.32 µM | 4.24 | – | 3.9 µM | – | – | – | – | – | – | – | – | –
COC(=O)/C(C#N)=C(/NCCN)Nc1ccccc1 | > 100 µM | > 100 µM | > 100 µM | > 100 µM | > 100 µM | > 100 µM | > 100 µM | > 100 µM | > 100 | – | > 100 µM | – | – | – | – | – | – | – | – | –
CC(=O)OC1CCC2C3CCc4c(C)ccc(OS(=O)(=O)c5ccccc5)c4C3CCC12C (stereo unspecified) | > 100 µM | 94.4 µM | > 100 µM | > 100 µM | > 100 µM | > 100 µM | > 100 µM | > 100 µM | > 100 | – | 37.9 µM | – | – | – | – | – | – | – | – | –
C#CCN(Cc1ccc2nc(OC)c(OC)nc2c1)c1cc(OC)c(OC)c(OC)c1 | 83.8 µM | > 75.1 µM | 60.6 µM | > 82.8 µM | > 87.5 µM | > 100 µM | > 87.8 µM | > 87.2 µM | > 69.6 | – | 62.6 µM | – | – | – | – | – | – | – | – | –
Cc1cnc2c(c1)C(=O)C1=C(C2=O)C2OC(=O)CC2OC1(C)C (stereo unspecified) | 0.191 µM | 0.507 µM | 2.31 µM | 0.405 µM | 0.202 µM | 2.04 µM | 2.76 µM | 2.28 µM | 0.424 | – | 0.384 µM | – | – | – | – | – | – | – | – | –
COC(=O)[C@H](Cc1ccccc1)NC(=O)CCCCCCC(=O)NO | 38.6 µM | 32.3 µM | > 100 µM | > 100 µM | > 100 µM | > 100 µM | 23.8 µM | 86 µM | 57.5 | – | 71.9 µM | – | – | – | – | – | – | – | – | –
C=C1c2nc3ccccc3n2C=C(c2ccc(Cl)cc2)N1c1ccc(OC)cc1 | 13.3 µM | 21.6 µM | 15.6 µM | 19.1 µM | 22.5 µM | 22.2 µM | 66.5 µM | 18.7 µM | 26.1 | – | 43.6 µM | – | – | – | – | – | – | – | – | –
N#Cc1nc(C2CCC2)oc1N | > 100 µM | > 100 µM | > 100 µM | > 100 µM | > 100 µM | > 100 µM | > 100 µM | > 100 µM | > 100 | – | > 100 µM | – | – | – | – | – | – | – | – | –
CC(C)OC(=O)OCSc1ccccc1N=Cc1cccc([N+](=O)[O-])c1 | > 10 µM | > 10 µM | > 10 µM | > 10 µM | > 10 µM | > 10 µM | > 10 µM | > 10 µM | > 10 | – | > 10 µM | – | – | – | – | – | – | – | – | –
COc1cc2c(cc1Cc1c(F)cccc1Cl)nc(-c1c(F)cccc1Cl)n2Cc1c(F)cccc1Cl | 79.9 µM | > 100 µM | > 100 µM | 91.3 µM | > 100 µM | > 100 µM | 47.5 µM | > 100 µM | > 100 | – | 37.6 µM | – | – | – | – | – | – | – | – | –
O=[N+]([O-])c1ccc2c(c1)C1=NN(c3ccccc3)C(c3ccccc3Br)C1CCC2 (stereo unspecified) | > 50 µM | 43 µM | > 50 µM | > 50 µM | > 50 µM | > 50 µM | > 50 µM | > 50 µM | > 50 | – | 48.1 µM | – | – | – | – | – | – | – | – | –
O=c1cc(-c2cc(O)c(O)c(-c3c(O)cc4oc(-c5ccc(O)c(O)c5)cc(=O)c4c3O)c2)oc2cc(O)cc(O)c12 | > 25 µM | > 25 µM | > 25 µM | > 25 µM | > 25 µM | > 25 µM | > 25 µM | > 25 µM | > 25 | – | > 25 µM | – | – | – | – | – | – | – | – | –
CC(=O)c1cnc2oc3ccc(O)cc3c2c1-c1ccccc1 | 81.2 µM | > 100 µM | > 100 µM | > 100 µM | > 100 µM | > 100 µM | > 100 µM | > 100 µM | 45 | – | > 100 µM | 5.04 | – | – | – | – | – | – | – | –
[O-]/[N+](=C\c1ccccc1OC(=S)S)c1ccc(Cl)cc1 | > 100 µM | > 100 µM | > 100 µM | > 100 µM | > 100 µM | > 100 µM | > 100 µM | > 100 µM | 30.7 | – | 18.1 µM | – | – | – | – | – | – | – | – | –
COc1cc(/C=C/C=C2\CC/C(=C\C=C\c3ccc(O)c(OC)c3)C2=O)ccc1O | > 100 µM | 77.7 µM | > 100 µM | > 100 µM | > 100 µM | > 100 µM | > 100 µM | > 100 µM | > 100 | – | > 100 µM | – | – | – | – | – | – | – | – | –
CCOC(=O)/C=C(\C(=O)OCC)n1ccc(=O)n(Cc2cn(COCCOC(C)=O)nn2)c1=O | 30.6 µM | 38.4 µM | 29.7 µM | 21.2 µM | 38 µM | 41 µM | 47.7 µM | > 52.5 µM | 44.3 | – | 35.3 µM | – | – | – | – | – | – | – | – | –
C=C(CN(C)C)C(=O)c1ccccc1[N+](=O)[O-] | 20.2 µM and 21.1 µM | 30.2 µM and 4.32 µM | > 58.3 µM and 47 µM | 28.2 µM and 2.88 µM | 27 µM and 12.6 µM | 34.1 µM and 51.6 µM | 33.2 µM and 35 µM | 59.3 µM and 45.1 µM | 52.7 | 2.11 | 18.5 µM and 5.11 µM | – | 4.74 | 1.99 | 20.9 | 1.55 | 3.34 | 18.8 | 17.4 | 19.6
O=C1c2ccccc2NC(=S)[C@@H]2CCCN12 | > 100 µM | > 100 µM | > 100 µM | > 100 µM | > 100 µM | > 100 µM | > 100 µM | > 100 µM | > 100 | – | > 100 µM | – | – | – | – | – | – | – | – | –
COc1ccc(COCC[C@H](C)OC2OC(CO[Si](C)(C)C(C)(C)C)C(OC(=O)CCCN=[N+]=[N-])C(OC(=O)CCCN=[N+]=[N-])C2OC(=O)CCCN=[N+]=[N-])cc1 (stereo partly specified) | > 100 µM | > 100 µM | 89.2 µM | > 100 µM | 88.7 µM | > 100 µM | > 100 µM | > 100 µM | > 100 | – | > 100 µM | – | – | – | – | – | – | – | – | –
CC(=O)c1ccc2c(c1)CC1(C2)Cc2ccccc2C1=O (stereo unspecified) | > 100 µM | > 100 µM | > 100 µM | > 100 µM | > 100 µM | > 100 µM | > 100 µM | > 100 µM | > 100 | – | 95.9 µM | – | – | – | – | – | – | – | – | –
C[n+]1c(-c2ccc(/C=C/C=N\NC(=O)c3ccc(C(=O)N/N=C\C=C\c4ccc(-c5cn6ccccc6[n+]5C)cc4)cc3)cc2)cn2ccccc21 | > 100 µM | > 100 µM | > 100 µM | > 60.4 µM | > 100 µM | > 100 µM | > 100 µM | > 100 µM | > 100 | – | > 100 µM | – | – | – | – | – | – | – | – | –
O=C(c1ccncc1)C1C(=O)c2ccccc2C1C1(O)c2ccccc2CC1C(O)c1ccncc1 (stereo unspecified) | > 100 µM | > 100 µM | > 100 µM | > 100 µM | > 100 µM | > 100 µM | 57.3 µM | > 100 µM | > 100 | – | > 100 µM | – | – | – | – | – | – | – | – | –
S=c1cc(-c2ccc3c(c2)OCO3)s[nH]1 | > 100 µM | > 100 µM | > 100 µM | > 100 µM | > 100 µM | > 100 µM | > 100 µM | > 100 µM | > 100 | – | > 100 µM | – | – | – | – | – | – | – | – | –
Cc1ccc(/C=C2\Cc3c(C)cc(C)cc3C2=O)c(C(=O)O)c1 | > 100 µM | 88.6 µM | 71.4 µM | > 100 µM | > 100 µM | > 100 µM | 83.6 µM | > 100 µM | > 100 | – | > 100 µM | – | – | – | – | – | – | – | – | –
CCOC(=O)c1cn2c(n1)sc1cc(Cl)cc(Cl)c12 | > 100 µM | > 100 µM | > 100 µM | > 100 µM | > 100 µM | > 100 µM | > 100 µM | > 100 µM | > 100 | – | > 100 µM | – | – | – | – | – | – | – | – | –
